≈ marks a conversion by molar mass, not a printed value. Calls of active or inactive are those of the source. The rule behind the calls is not given here.
Legend:
[1] = Cytotoxicity against human THLE-2 cells assessed as reduction in cell viability incubated for 96 hrs by MTT assay; assay type: toxicity, cell-based
[2] = tested on: Candida albicans; assay: Antifungal activity against Candida albicans ATCC SC5314 assessed as fungal growth inhibition by CLSI based serial microbroth dilution method; assay type: functional
[3] = tested on: Candida albicans; assay: Antifungal activity against Candida albicans CPCC400616 assessed as fungal growth inhibition by CLSI based serial microbroth dilution method; assay type: functional
[4] = tested on: Candida tropicalis; assay: Antifungal activity against Candida tropicalis CGMCC 2.3739 assessed as fungal growth inhibition by CLSI based serial microbroth dilution method; assay type: functional
[5] = tested on: Cryptococcus neoformans; assay: Antifungal activity against Cryptococcus neoformans CGMCC 2.3161 assessed as fungal growth inhibition by CLSI based serial microbroth dilution method; assay type: functional
[6] = tested on: Candida parapsilosis; assay: Antifungal activity against Candida parapsilosis GIM 2.190 assessed as fungal growth inhibition by CLSI based serial microbroth dilution method; assay type: functional; conditions: Lodderomyces parapsilosis
[7] = tested on: Nakaseomyces glabratus; assay: Antifungal activity against Candida glabrata clinical isolate assessed as fungal growth inhibition by CLSI based serial microbroth dilution method; assay type: functional
[8] = tested on: Pichia kudriavzevii; assay: Antifungal activity against Candida krusei GIM 2.1 assessed as fungal growth inhibition by CLSI based serial microbroth dilution method; assay type: functional
[9] = tested on: Aspergillus fumigatus; assay: Antifungal activity against Aspergillus fumigatus CGMCC 3.7795 assessed as fungal growth inhibition by CLSI based serial microbroth dilution method; assay type: functional
[10] = tested on: Candida albicans; assay: Antifungal activity against FLC and ITC-resistant Candida albicans 17 assessed as fungal growth inhibition by CLSI based serial microbroth dilution method; assay type: functional
[11] = tested on: Candida albicans; assay: Antifungal activity against FLC-resistant Candida albicans CaR assessed as fungal growth inhibition by CLSI based serial microbroth dilution method; assay type: functional
[12] = tested on: Candida albicans; assay: Antifungal activity against FLC-resistant Candida albicans 901 assessed as fungal growth inhibition by CLSI based serial microbroth dilution method; assay type: functional
[13] = tested on: Candida albicans; assay: Antifungal activity against FLC-resistant Candida albicans 904 assessed as fungal growth inhibition by CLSI based serial microbroth dilution method; assay type: functional
[14] = tested on: Candida albicans; assay: Antifungal activity against FLC-resistant Candida albicans 632 assessed as fungal growth inhibition by CLSI based serial microbroth dilution method; assay type: functional
[15] = tested on: Candida albicans; assay: Antifungal activity against FLC-resistant Candida albicans 100 assessed as fungal growth inhibition by CLSI based serial microbroth dilution method; assay type: functional
[16] = tested on: Candida albicans; assay: Antifungal activity against FLC-resistant Candida albicans 103 assessed as fungal growth inhibition by CLSI based serial microbroth dilution method; assay type: functional
[17] = tested on: Candida albicans; assay: Antifungal activity against FLC-resistant Candida albicans 311 assessed as fungal growth inhibition by CLSI based serial microbroth dilution method; assay type: functional
[18] = target: T1, Lanosterol 14-alpha demethylase (Candida albicans (strain SC5314 / ATCC MYA-2876) (Yeast), UniProt P10613); assay: Inhibition of CYP51 in Candida albicans ATCC SC5314 assessed as lanosterol level at 0.25 ug/ml measured after 18 hrs by GC-MS analysis relative to control; design: scale not given: the % may be the effect or the level left; conditions: at 0.25 µg/mL
T1 sequence (P10613 whole entry): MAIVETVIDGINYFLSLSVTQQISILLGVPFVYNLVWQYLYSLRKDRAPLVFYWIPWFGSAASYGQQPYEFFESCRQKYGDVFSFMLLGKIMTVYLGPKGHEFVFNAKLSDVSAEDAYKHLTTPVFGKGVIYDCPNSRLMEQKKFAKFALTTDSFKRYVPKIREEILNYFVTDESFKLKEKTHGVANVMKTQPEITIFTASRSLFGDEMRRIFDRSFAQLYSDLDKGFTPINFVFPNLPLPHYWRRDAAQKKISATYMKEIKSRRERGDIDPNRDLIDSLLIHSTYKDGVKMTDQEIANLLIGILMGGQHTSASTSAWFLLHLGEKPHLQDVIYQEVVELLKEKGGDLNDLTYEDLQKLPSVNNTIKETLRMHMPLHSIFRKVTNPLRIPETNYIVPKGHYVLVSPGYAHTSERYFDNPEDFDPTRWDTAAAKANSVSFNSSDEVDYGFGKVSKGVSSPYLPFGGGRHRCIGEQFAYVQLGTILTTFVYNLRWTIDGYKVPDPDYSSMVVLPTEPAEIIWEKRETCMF

[19] = target: T1, Lanosterol 14-alpha demethylase; assay: Inhibition of CYP51 in Candida albicans ATCC SC5314 assessed as ergosterol level at 0.25 ug/ml measured after 18 hrs by GC-MS analysis (reference value: 96.93 %); design: scale not given: the % may be the effect or the level left; conditions: at 0.25 µg/mL
[20] = target: T1, Lanosterol 14-alpha demethylase; assay: Inhibition of CYP51 in Candida albicans ATCC SC5314 assessed as eburicol level at 0.25 ug/ml measured after 18 hrs by GC-MS analysis relative to control; design: scale not given: the % may be the effect or the level left; conditions: at 0.25 µg/mL
[21] = target: T1, Lanosterol 14-alpha demethylase; assay: Inhibition of CYP51 in Candida albicans ATCC SC5314 assessed as 14alpha-methylergosta-8,24(28)-dien-3beta-6alpha-diol level at 0.25 ug/ml measured after 18 hrs by GC-MS analysis relative to control; design: scale not given: the % may be the effect or the level left; conditions: at 0.25 µg/mL
[22] = target: T1, Lanosterol 14-alpha demethylase; assay: Inhibition of CYP51 in Candida albicans ATCC SC5314 assessed as unknown sterol level at 0.25 ug/ml measured after 18 hrs by GC-MS analysis (reference value: 3.07 %); design: scale not given: the % may be the effect or the level left; conditions: at 0.25 µg/mL
[23] = tested on: Cell membrane; assay: Disruption of membrane integrity in Candida albicans ATCC SC5314 assessed as rupture of fungal cells at 16 ug/ml incubated for 48 hrs by transmission electron microscopy; assay type: subcellular; conditions: dose 16.0 µg/ml
[24] = tested on: Cell membrane; assay: Disruption of membrane integrity in Candida albicans ATCC SC5314 assessed as cell membrane damage at 16 ug/ml incubated for 48 hrs by transmission electron microscopy; assay type: subcellular; conditions: dose 16.0 µg/ml
[25] = tested on: Cell membrane; assay: Disruption of membrane integrity in Candida albicans ATCC SC5314 assessed as endogenous substances leakage at 16 ug/ml incubated for 48 hrs by transmission electron microscopy; assay type: subcellular; conditions: dose 16.0 µg/ml
[26] = tested on: Candida albicans; assay: Antibiofilm activity against Candida albicans […] assessed as inhibition of […] metabolism within the biofilm measured after 3 hrs by XTT reduction assay; assay type: functional
[27] = tested on: Candida albicans; assay: Antibiofilm activity against Candida albicans […] assessed as inhibition of […] metabolism within the biofilm measured after 6 hrs by XTT reduction assay; assay type: functional
[28] = tested on: Candida albicans; assay: Antibiofilm activity against Candida albicans […] assessed as inhibition of […] metabolism within the biofilm measured after 18 hrs by XTT reduction assay; assay type: functional
[29] = tested on: Candida albicans; assay: Antibiofilm activity against Candida albicans […] assessed as inhibition of […] metabolism activity in the biofilm measured after 24 hrs by XTT reduction assay; assay type: functional
[30] = tested on: Candida albicans; assay: Antibiofilm activity against Candida albicans […] assessed as inhibition of […] metabolism activity in the biofilm measured after 48 hrs by XTT reduction assay; assay type: functional
[31] = tested on: Candida albicans; assay: Fungicidal activity against Candida albicans CPCC400616 measured after 48 hrs; assay type: functional
[32] = tested on: A549; assay: Cytotoxicity against human A549 cells assessed as reduction in cell viability incubated for 96 hrs by MTT assay; assay type: functional, cell-based; conditions: A549, 96 h
[33] = tested on: MCF7; assay: Cytotoxicity against human MCF7 cells assessed as reduction in cell viability incubated for 96 hrs by MTT assay; assay type: functional, cell-based; conditions: MCF7, 96 h
[34] = Cytotoxicity against human HepG2 cells assessed as reduction in cell viability incubated for 96 hrs by MTT assay; assay type: toxicity, cell-based
[35] = tested on: RAW264.7; assay: Cytotoxicity against mouse RAW264.7 cells assessed as reduction in cell viability incubated for 96 hrs by MTT assay; assay type: functional, cell-based; conditions: RAW264.7, 96 h
[36] = tested on: Cell membrane; assay: Disruption of membrane integrity in Candida albicans ATCC SC5314 assessed as cell wall damage at 16 ug/ml incubated for 48 hrs by transmission electron microscopy; assay type: subcellular; conditions: dose 16.0 µg/ml

Work on `OC(Cn1cncn1)(Cn1cncn1)c1ccc(F)cc1F` [FLUCONAZOLE] yielded an IC50 at 96 h [1] of over 50 µM, an MIC [2] of 0.5 µg/mL (≈ 1.63 µM) and an MIC [3] of 1 µg/mL (≈ 3.27 µM). For the same compound, the MIC [4] was 0.5 µg/mL (≈ 1.63 µM), the MIC [5] was 4 µg/mL (≈ 13.1 µM) and the MIC [6] was 2 µg/mL (≈ 6.53 µM). For the same compound, the MIC [7] was 4 µg/mL (≈ 13.1 µM), the MIC [8] was 8 µg/mL (≈ 26.1 µM) and the MIC [9] was over 64 µg/mL. For the same compound, the MIC [10] was over 64 µg/mL, the MIC [11] was over 64 µg/mL and the MIC [12] was 64 µg/mL (≈ 209 µM). The MIC [13] was 32 µg/mL (≈ 104 µM), the MIC [14] was over 64 µg/mL and the MIC [15] was over 64 µg/mL. The MIC [16] was over 64 µg/mL, the MIC [17] was over 64 µg/mL and the Activity [18] was 34.42%. It also gave an Activity [19] of 3.15%, an Activity [20] of 29.02% and an Activity [21] of 22.35%. For the same compound, the Activity [22] was 1.59%, the Activity [23] was “Active” and the Activity [24] was “Active”. For the same compound, the Activity [25] was “Active”, the MIC50 [26] was 16 µg/mL (≈ 52.2 µM) and the MIC50 [27] was 32 µg/mL (≈ 104 µM). It also gave an MIC50 [28] of 64 µg/mL (≈ 209 µM), an MIC50 [29] of over 64 µg/mL and an MIC50 [30] of over 64 µg/mL. For the same compound, the MFC [31] was over 64 µg/mL, the IC50 [32] was over 50 µM and the IC50 [33] was over 50 µM. The IC50 at 96 h [34] was over 50 µM, the IC50 [35] was over 50 µM and the Activity [36] was “Active”.

Reference: ChEMBL document CHEMBL5154783, “Design, synthesis, and evaluation of novel 3-thiophene derivatives as potent fungistatic and fungicidal reagents based on a conformational restriction strategy” (Eur J Med Chem, 2022)
